Here are results for 6 compounds from the supplement of paper PMC4862054.

Assay in all cases: normalised viability (% of control), CellTiter-Blue; higher = more viable cells (about 100 = DMSO control)
Common to all, as to conditions: incubation time: 72 h
A general note: Alamar Blue is a resazurin reagent that responds to reducing activity.

Experiment [1] has as its system CAL-148. The protocol: (§1)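 DSRT, CellTiter-Blue viability, 72 h incubation. Signal is normalised to DMSO and benzethonium chloride controls. Value is the normalised response at dose 9.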
In experiment [2] the test system is CAL-51. The protocol:
as §1

Experiment [3] concerns CAL-85-1. The protocol: as §1
For experiment [4], the system named is DU-4475. How it is done:
as §1

Experiment [5] relates to HDQ-P1. How it is done: as §1
The subject of experiment [6] is MDA-MB-453. How it is done: as §1
The subject of experiment [7] is CAL-148. The protocol:
(§2)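 DSRT, CellTiter-Blue viability, 72 h incubation. Signal is normalised to DMSO and benzethonium chloride controls. Value is the normalised response at dose 8.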
This is another data set of the same source.

Experiment [8] concerns CAL-51. The protocol: as §2
This is another data set of the same source.

Experiment [9] has as its system CAL-85-1. The protocol:
as §2
The source holds these as a separate data set.

In experiment [10] the test system is DU-4475. The protocol:
as §2
This is another data set of the same source.

The test system of experiment [11] is HDQ-P1. The protocol:
as §2
This is another data set of the same source.

For experiment [12], the system named is MDA-MB-453. How it is done:
as §2
This is another data set of the same source.

“And” between values parts separate entries of the source, which are not always exact repeats. Equal values may be shown once.

On to `COc1cc(F)c(F)c(Nc2ccc(I)cc2F)c1NS(=O)(=O)C1(C[C@H](O)CO)CC1` [RDEA119] (10000 nM), for which the normalised viability in [1] turned out to be 71.5%; in experiment [2] it was 60.4%; in experiment [3] it was 29.9%; in experiment [4], 0.93%; in experiment [5] it was 51.1%; in [6] it was 36.1%.
Take `CC(=O)O[C@@]12CO[C@@H]1C[C@H](O)[C@@]1(C)C(=O)[C@H](O)C3=C(C)[C@@H](OC(=O)[C@H](O)[C@@H](NC(=O)OC(C)(C)C)c4ccccc4)C[C@@](O)([C@@H](OC(=O)c4ccccc4)[C@H]21)C3(C)C` [Docetaxel] (300 nM): the normalised viability in experiment [7] is 22.2% and 19.1%; in [8] it was 17.9% and 12%; in experiment [9], 30.9% and 28.7%; in experiment [10] it was 12.4% and 8.14%; in experiment [11] it was 37.9% and 31.2%; in experiment [12] it was 24.4% and 23.9%.
As to `C[C@]12CC[C@@H]3c4ccc(OC(=O)N(CCCl)CCCl)cc4CC[C@H]3[C@@H]1CC[C@@H]2O` [Estramustine] (990 nM), the normalised viability in [1] stood at 111%; in experiment [2], 84%; in experiment [3], 110%; in experiment [4] it was 89.9%; in experiment [5], 99.5%; in experiment [6] it was 101%.
In the case of `Cc1sc2c(c1C)C(c1ccc(Cl)cc1)=N[C@@H](CC(=O)OC(C)(C)C)c1nnc(C)n1-2` [(+)JQ1] (3000 nM), the normalised viability was 36.9% in experiment [7]; 74.3% in experiment [8]; 40.5% in experiment [9]; 0.9% in experiment [10]; 94.8% in experiment [11]; 23.3% in experiment [12].
Consider `CC1(C)CNc2cc(NC(=O)c3cccnc3NCc3ccncc3)ccc21` [Motesanib] (3000 nM), for which the normalised viability in experiment [7] is 86.7%; in experiment [8], 104%; in experiment [9] it was 86.3%; in experiment [10] it was 101%; in experiment [11] it was 72.7%; in experiment [12] it was 80.8%.
Turning to `COc1cc2c(cc1O)CC[C@@H]1[C@@H]2CC[C@]2(C)[C@@H](O)CC[C@@H]12` [2-methoxyestradiol] (3000 nM), the normalised viability came out at 29.6% in [7]; 42.2% in experiment [8]; 41.2% in experiment [9]; 36.1% in [10]; 56.7% in [11]; 34.4% in experiment [12].
